Measured values reported in ChEMBL document CHEMBL3046543, “Larvicidal and adulticidal activity of alkylphthalide derivatives from rhizome of Cnidium officinale against Drosophila melanogaster” (J Agric Food Chem, 2005).

Assays:
Type in all cases: functional
[1] = tested on: Drosophila melanogaster; test: Insecticidal activity against Drosophila melanogaster larvae assessed as mortality compound treated in diet at 25 degC and >90% RH treated for 8 days; details: feed or water, 192 h
[2] = tested on: Drosophila melanogaster; test: Relative toxicity, LC50 for rotenone Drosophila melanogaster larvicidal activity to LC50 for compound Drosophila melanogaster larvicidal activity
[3] = tested on: Drosophila melanogaster; test: Relative toxicity, LD50 for rotenone Drosophila melanogaster adulticidal activity to LD50 for compound Drosophila melanogaster adulticidal activity
[4] = tested on: Drosophila melanogaster; test: Insecticidal activity against 5 to 7 days old adult Drosophila melanogaster assessed as mortality measured as inability to move compound treated in diet at 25 degC and >90% RH treated for 8 days

For `CCCC[C@@H]1OC(=O)c2ccccc21` [(3S)-BUTYLPHTHALIDE], the LC50 [1] was 4.99 mM, the RatioLC50 [2] was 0.004 and the Ratio [3] was 0.62. It also gave an LD50 [4] of 5.93 µg.
`CCCC[C@@H]1OC(=O)[C@@H]2C=CCC[C@H]12` [CNIDILIDE] showed an LC50 [1] of over 16 mM, a RatioLC50 [2] of under 0.001 and a Ratio [3] of 0.4. It also gave an LD50 [4] of 9.17 µg.
Work on `CCC/C=C1\OC(=O)C2=C1CCC=C2` [LIGUSTILIDE] yielded an LC50 [1] of 2.54 mM, a RatioLC50 [2] of 0.009 and a Ratio [3] of under 0.07. It also gave an LD50 [4] of over 50 µg.
Molecule `CCCC[C@@H]1OC(=O)C2=CCCC[C@H]21` [NEOCNIDILIDE] has an LC50 [1] of 9.9 mM, a RatioLC50 [2] of 0.002 and a Ratio [3] of 0.34. The LD50 [4] was 10.82 µg.
`C=C(C)[C@H]1Cc2c(ccc3c2O[C@@H]2COc4cc(OC)c(OC)cc4[C@@H]2C3=O)O1` [ROTENONE] showed an LC50 [1] of 0.02 mM, a RatioLC50 [2] of 1 and a Ratio [3] of 1. It also gave an LD50 [4] of 3.68 µg.
